Data from publication PMC7906094 (Cancer chemotherapy and pharmacology, 2020).

How the values were obtained:
CYP3A5 = details: cited from earlier work
CYP3A4 [1] = details: cited from earlier work
[2] = human, primary human hepatocytes
CYP = experiment: Triapine metabolism in human liver microsomes, pH 7.4; format: in vitro ADME; details: human, human liver microsomes fortified with NADPH, pH 7.4
[3] = test system: human liver microsomes (CYP); experiment: as above; format: in vitro ADME
[4] = cited from earlier work
[5] = test system: aldehyde oxidase (AO) and xanthine oxidase (XO); experiment: Triapine metabolism in human liver cytosol with high AO/XO activity; format: in vitro ADME; details: 90-minute incubation, human liver cytosol enriched in AO/XO, presence or absence of raloxifene and allopurinol
CYP2C19 = CYP2C19 (Homo sapiens, UniProt P33261); format: in vitro ADME; details: triapine 6 μM, human liver microsomes
[6] = test system: monoamine oxidases (MAO)-A/B; experiment: Triapine metabolism in human liver mitochondria; format: in vitro ADME; details: presence or absence of MAO-A and B inhibitors
[7] = test system: primary human hepatocytes; experiment: Triapine metabolism in human hepatocytes with enzyme inhibitors; format: in vitro ADME; details: in the presence of non-isoform specific CYP inhibitor N-benzyl imidazole
[8] = test system: human liver microsomal glucuronyltransferases; experiment: Triapine metabolism by glucuronosyltransferases in human liver microsomes; format: in vitro ADME; details: human liver microsomes + UDPGA, 120-minute incubation
[9] = test system: human liver microsomes (FMO); experiment: Triapine metabolism in human liver microsomes, pH 8.4; format: in vitro ADME
CYP2C9 = details: microsomes; cited from earlier work
CYP3A4 [10] = details: cited from earlier work; remark: listed apart in the source
[11] = test system: primary human hepatocytes; details: human hepatocytes, tenofovir 0.5 μM, emtricitabine 7.2 μM; for impact of co-incubation on triapine half-life: triapine 6 μM
CYP3A4 [12] = details: cited from earlier work; remark: listed apart in the source

CYP2C19, sequence (P33261 whole entry): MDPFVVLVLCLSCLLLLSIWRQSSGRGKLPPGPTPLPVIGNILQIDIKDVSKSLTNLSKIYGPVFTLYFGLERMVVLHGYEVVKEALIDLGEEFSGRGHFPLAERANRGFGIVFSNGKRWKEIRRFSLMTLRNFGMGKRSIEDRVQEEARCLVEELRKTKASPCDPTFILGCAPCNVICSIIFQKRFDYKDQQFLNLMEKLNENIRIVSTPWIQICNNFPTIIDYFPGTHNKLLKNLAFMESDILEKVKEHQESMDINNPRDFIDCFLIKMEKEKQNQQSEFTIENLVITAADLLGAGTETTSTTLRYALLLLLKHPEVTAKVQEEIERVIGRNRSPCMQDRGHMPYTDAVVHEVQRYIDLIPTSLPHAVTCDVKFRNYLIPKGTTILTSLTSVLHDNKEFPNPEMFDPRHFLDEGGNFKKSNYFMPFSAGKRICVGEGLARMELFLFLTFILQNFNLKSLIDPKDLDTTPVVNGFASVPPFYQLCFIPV

Compound: CNC(=O)c1cc(Oc2ccc(NC(=O)Nc3ccc(Cl)c(C(F)(F)F)c3)cc2)ccn1 [Sorafenib]
- effect on midazolam 1'-hydroxylation by CYP3A5 (CYP3A5): activated
- effect on midazolam 1'-hydroxylation by CYP3A4 (CYP3A4 [1]): inhibited

Compound: NC(=S)NN=Cc1ncccc1N [Triapine, 3-aminopyridine-2-carboxaldehyde thiosemicarbazone]
- half-life at 6 μM [2]: 8 h
- half-life at 6 μM (CYP): ~3 h
- depletion of triapine ([3]; NADPH-fortified human liver microsomes pH 7.4 in the presence of CYP non-specific inhibitor N-benzyl imidazole (1 mM)): Minimal depletion
- triapine remaining intact ([3]; control incubation without either NADPH or microsomes, after 2 h): > 95%
- Cmax ([4]; after intravenous or oral dosing): ~5 µM
- total body clearance ([4]; humans, intravenous administration): 57.5 ± 25 L/h
- time to reach Cmax ([4]; humans, oral administration): 1.9 ± 1.4 h
- urinary excretion ([4]; humans): minimal
- metabolism of triapine [5]: did not undergo metabolism
- increase of metabolism of CYP2C19 probe S-mephenytoin (CYP2C19): 20%
- triapine depletion [6]: no triapine depletion
- triapine metabolism in hepatocytes [7]: inhibited
- triapine remaining [8]: 100.3%
- triapine disappeared ([9]; human liver microsomes, phosphate buffer pH 8.4, fortified with NADPH, within 2 h): 17%
- depletion of triapine ([9]; pH 8.4, control incubation without NADPH): 9%
- depletion of triapine ([9]; pH 8.4, in the presence of FMO inhibitor methimazole (200 μM)): 9%

Compound: CC(C)=O [acetone]
- stimulation of CYP2C9 mediated tolbutamide hydroxylation (CYP2C9): 2–3 fold

Compound: CC#N [acetonitrile]
- stimulation of CYP2C9 mediated tolbutamide hydroxylation (CYP2C9): 2–3 fold

Compound: O=C(O)CC(O)(CC(=O)O)C(=O)O [citrate]
- effect on CYP3A4 catalytic activity (CYP3A4 [10]): stimulated

Compound: Nc1nc(=O)n([C@@H]2CS[C@H](CO)O2)cc1F [emtricitabine]
- impact of co-incubation on %triapine remaining after 48 hours [11]: not significantly different
- impact of co-incubation on triapine AUC0–48h [11]: not significantly different
- impact of co-incubation on triapine half-life [11]: not impacted

Compound: C=C[C@H]1C[N@@]2CC[C@H]1C[C@@H]2[C@@H](O)c1ccnc2ccc(OC)cc12 [quinidine]
- increase of CYP3A4 Vmax for R-warfarin 10-hydroxylation (CYP3A4 [12]): 5 fold
- increase of CYP3A4 Vmax for S-warfarin 4'-hydroxylation (CYP3A4 [12]): 2.5 fold
- increase of CYP3A4 mediated 5-, 5'-, and 10-hydroxylation of diclofenac, piroxicam and R-warfarin (CYP3A4 [12]): 5–7 fold

Compound: CCN(CC)CCNC(=O)c1c(C)[nH]c(/C=C2\C(=O)Nc3ccc(F)cc32)c1C [sunitinib]
- effect on midazolam 1'-hydroxylation by CYP3A5 (CYP3A5): activated
- effect on midazolam 1'-hydroxylation by CYP3A4 (CYP3A4 [1]): inhibited

Compound: C[C@H](Cn1cnc2c(N)ncnc21)OCP(=O)(O)O [tenofovir]
- impact of co-incubation on %triapine remaining after 48 hours [11]: not significantly different
- impact of co-incubation on triapine AUC0–48h [11]: not significantly different
- impact of co-incubation on triapine half-life [11]: not impacted
